Measured values taken from ChEMBL document CHEMBL1150048, “Echinofuran, a New Furanosesquiterpene from the Gorgonian Echinogorgia praelonga” (J Nat Prod, 1992).
Active and inactive are the calls of the source. The rule behind the calls is not given here.

Legend:
Bacillus subtilis = experiment: Antimicrobial activity against Bacillus subtilis at 100 ug/8 mm disk; type: functional, organism-based
Poecilia reticulata = experiment: Ichthyotoxicity against Poecilia reticulata up to 10 ppm; type: organism-based; conditions: in vivo
Staphylococcus aureus = experiment: Antimicrobial activity against Staphylococcus aureus at 100 ug/8 mm disk; type: functional, organism-based
Escherichia coli = experiment: Antimicrobial activity against Escherichia coli at 100 ug/8 mm disk; type: functional, organism-based
Cladosporium = experiment: Antimicrobial activity against Cladosporium at 100 ug/8 mm disk; type: functional, organism-based
Aspergillus sp. = experiment: Antimicrobial activity against Aspergillus sp. at 100 ug/8 mm disk; type: functional, organism-based
[1] = Inhibition of cell division in sea urchin fertilized egg at 1 ug/ml; conditions: echinoidea, fertilized sea urchin eggs

Compound: C=C1CCC2=C(C)Cc3occ(C)c3C[C@@H]12 [ECHINOFURAN]
- Activity (Bacillus subtilis): inactive
- Activity (Poecilia reticulata): Non-toxic
- Activity (Staphylococcus aureus): inactive
- Activity (Escherichia coli): inactive
- Activity (Cladosporium): inactive
- Activity (Aspergillus sp.): inactive
- inhibition at 1 ug/ml [1]: 90%
